From US4892963A, “N-phenyl amide compounds” (Lilly Industries Limited, priority 1986, dated 1990)

What was measured:
cyclooxygenase = cyclooxygenase inhibition test of Harvey and Osborn
Source text: Other members of the series inhibit 5-lipoxygenase product formation as measured in this test, and are thus indicated for the therapeutic treatment of diseases in which leukotrienes are implicated. These include immediate hypersensitivity diseases, allergic reactions of the pulmonary system, for example, in lung disorders such as extrinsic asthma and industrial asthmas and in other inflammatory disorders associated with acute or chronic infectious diseases as allergic skin diseases, ectopic and atopic eczemas, psoriasis, contact hypersensitivity and angioneurotic oedema, bronchitis, cystic fibrosis and rheumatic fever. Furthermore, owing to their inhibition of leukotriene formation, the compounds have potential activity against a wide range of inflammatory diseases, and are also indicated for use in cancer treatment.

rat spleen cells = test: concanavalin A response of rat spleen cells (tritiated thymidine uptake); type: cell-based; conditions: dosage level of 10 micromolar, concanavalin A 3 μg/ml, 2×10^5 cells per well
Experimental: The concanavalin A response of rat spleen cells was used as a primary in vitro assay to determine the activity of the compounds of the invention. Many methods for the determination of concanavalin A response are described in the literature. The method employed was similar to that described by Lacombe P. et al, FEBS 3048 191, 227-230. This method was altered insofar as Hepes was excluded, 2×10^5 cells were used per culture well, and concanavalin A employed at 3 μg/ml. 2-Mercaptoethanol was a requirement (2×10M^-5 ) and 0.1 μCi of tritiated thymidine was added 4 hours before cell harvesting.

Row | Compound | cyclooxygenase inhibiting properties (cyclooxygenase) | inhibition at 10 µM (rat spleen cells)
1 | CC(O)=C(C#N)C(=O)N(C)c1ccc(C(C)(C)C)cc1 [Example 2, 2-Cyano-N-[4-(1,1-dimethylethyl)phenyl]-3-hydroxy-N-methylbut-2-enamide] | little or no cyclooxygenase inhibiting properties | 
2 | CC(O)=C(C#N)C(=O)Nc1ccc(C(C)(C)C)cc1 [Example 1, 2-Cyano-N-[4-(1,1-dimethylethyl)phenyl]-3-hydroxybut-2-enamide] | little or no cyclooxygenase inhibiting properties | > 50%
3 | Cc1oncc1C(=O)Nc1ccc(C(C)(C)C)cc1 [Example 3, N-[4-(1,1-Dimethylethyl)phenyl]-5-methylisoxazol-4-yl-carboxamide] |  | > 50%
4 | CCC(C)(C)c1ccc(NC(=O)C(C#N)=C(C)O)cc1 [Example 4, 2-Cyano-N-[4-(1,1-dimethylpropyl)phenyl]-3-hydroxybut-2-enamide] |  | > 50%
